The record followed here is patent publication US20210187008A1, “USE OF ACANTHOPANAX TRIFOLIATUS POLYSACCHARIDE ATP1-1 IN PREPARATION OF DRUGS FOR TREATMENT OF DIABETES” (GUANGDONG PHARMACEUTICAL UNIVERSITY, priority 2019, published 2021).

Assay type in all cases: in vivo
Experiment [1] concerns STZ-induced diabetic mice. The experiment is described as follows: Body weight of STZ-induced diabetic mice. The note with it: for Body Weight: dimethylbiguanide 185 mg/kg intragastric. As to the method:
(§1) After 70 mice were adaptively fed for 3 days, they were fasted and kept feeding water for 12 hours, 0.1 mol/L STZ-streptozotocin solution was injected intraperitoneally, the injection volume was 60 mg/kg, and the injection was continued for 5 days. Seven days after the injection, the mice were fasted and kept feeding water for 8 hours, and the tail was cut to collect blood and the fasting blood glucose of the mice was measured. The model was considered as a successful model with a blood glucose concentration greater than 16.5 mmol/L. Diabetic mice successfully modeled (50) were randomly divided into 5 groups, namely: a high glucose model group, a dimethylbiguanid group (185 mg/kg), ATP1-1 high dose group (140 mg/kg), ATP1-1 medium dose group (70 mg/kg), ATP1-1 low dose group (35 mg/kg), 10 mice in each group, and 10 normal mice were randomly selected as a normal control group. All groups were administrated by intragastric administration, and the normal control group and high glucose model group were administrated the same amount of distilled water. after the successful modelling, the body weight, diet and water consumption and blood glucose of the mice before administration and 1, 2, 3, 4, 5, and 6 weeks after administration were measured, and the glucose tolerance was measured at the end of the experiment.

The test system of experiment [2] is diabetic mice. Briefly: Diet and water consumption of diabetic mice. Particulars: dimethylbiguanide 185 mg/kg, during the administration period, P<0.01. As to the method: as §1
The test system of experiment [3] is diabetic mice. Briefly: Fasting blood glucose in diabetic mice. The note with it: dimethylbiguanide 185 mg/kg. As to the method:
as §1

SMILES strings stand for the structures.

Turning to `CN(C)C(=N)NC(=N)N` [Dimethylbiguanide, dimethylbiguanide], the “Body Weight” value in experiment [1] (Week 0 (before administration), x±s, n=8) was 19.48 ± .78 g; in experiment [1] (Week 1) it was 19.72 ± .77 g; in experiment [1] (Week 2), 20.40 ± .78 g; in experiment [1] (Week 3), 20.94 ± .73 g; in experiment [1] (Week 4), 21.49 ± .84 g; in experiment [1] (Week 5), 21.70 ± .90 g. In experiment [1] (Week 6), the “Body Weight” value is 21.89 ± .89 g. The “body weight compared with high glucose model group” value in experiment [1] (dimethylbiguanide 185 mg/kg, after 6 weeks of administration, P<0.05) is recorded as “significantly higher”. Further, the “diet and water consumption compared with high glucose model group” value in the experiment on diabetic mice [2] is reported as “significantly reduced”. For the same compound, in the experiment with diabetic mice [3] (after three weeks of administration, P<0.05), the “fasting blood sugar compared with high glucose group” value is listed as “significantly different”. The “blood glucose inhibition rate” value in the experiment with diabetic mice [3] (at the end of the administration (6 weeks)) was found to be 46.9%.
